Structures can show the parent of a compound that is named as a salt.
Test system: patients who meet the 1990 ACR criteria for fibromyalgia syndrome
Test: Multicenter, double-blind, randomized, placebo-controlled monotherapy study of milnacipran for treatment of fibromyalgia (Example 2)
Type: in vivo, human
Conditions: 3-month treatment period (LOCF), intent-to-treat; for MFI total score, Change from baseline, Difference from Placebo / MFI total score, Change from baseline, LS Mean (SE): ANCOVA
Experimental: This was a multicenter, randomized, double-blind, placebo-controlled three-arm study designed which enrolled 1196 patients who meet the 1990 ACR criteria for fibromyalgia syndrome (history of widespread pain and pain in 11 of 18 tender point sites on digital palpation), as well as the more detailed admission criteria outlined in the protocol.
All randomized medications (placebo and milnacipran) were administered twice a day (BID).
(i) Primary Efficacy Assessments: Patient Global Impression of Change (PGIC) administered to patients at visits Tx3, Tx7, Tx11 and Tx15/ET; Physical Component summary of SF-36 (SF-36 PCS) administered to patients at visits BL2/Tx0, Tx3, Tx7, Tx11 and Tx15/ET; (ii) Secondary Efficacy Assessments: Time weighted average (AUC) of weekly average PED morning recall pain score; PGIC and SF-36 PCS administered to patients at visits Tx3 to Tx15.
(iii) Additional Efficacy Measurements: The Fibromyalgia Impact Questionnaire (FIQ) total score and physical function, Beck Depression Inventory (BDI), the MOS-Sleep Index Scale, the Arizona Sexual Experiences Scale (ASEX), Patient pain 24 hour and 7 day recall VAS, the SF-36 individual domains, Patient Global Disease Status, Patient Global Therapeutic Benefit, the Multiple Ability Self-report Questionnaire (MASQ, cognitive function), the Multidimensional Health Assessment Questionnaire (MDHAQ), Multidimensional Fatigue Inventory (MFI), and diary assessments including current pain (morning, random daily, and evening reports); overall pain past week (weekly report), overall fatigue in the last week (weekly report), and the extent that pain kept the patient from caring for themselves (weekly report).

Structure (SMILES): CCN(CC)C(=O)C1(c2ccccc2)CC1CN (racemic) [milnacipran, Z-2-aminomethyl-1-phenyl-N, N-diethylcyclopropanecarboxamide hydrochloride]
- MFI total score, Actual, Mean (100 mg milnacipran): 63.00
- MFI total score, Actual, Median (100 mg milnacipran): 64.0
- MFI total score, Change from baseline, Mean (100 mg milnacipran): −5.39
- MFI total score, Change from baseline, Median (100 mg milnacipran): −4.0
- MFI total score, Change from baseline, Difference from Placebo (100 mg milnacipran): −1.80
- MFI total score, Change from baseline, LS Mean (SE) (100 mg milnacipran): −5.47 (0.792)
- MFI total score, Actual, Mean (200 mg milnacipran): 64.15
- MFI total score, Actual, Median (200 mg milnacipran): 65.0
- MFI total score, Change from baseline, Mean (200 mg milnacipran): −5.39
- MFI total score, Change from baseline, Median (200 mg milnacipran): −4.0
- MFI total score, Change from baseline, Difference from Placebo (200 mg milnacipran): −1.55
- MFI total score, Change from baseline, LS Mean (SE) (200 mg milnacipran): −5.63 (0.787)

From US20100081719A1 (priority 2006, published 2010)
